This is an account of results in patent EP0220873B1, “Fused bicyclic imides with psychotropic activity” (priority 1985, dated 1987).

The test system of assay [1] is avoidance responding. As to the kind of experiment: conditioned avoidance (shelf-jump response) test. The class given is in vivo, Male CD rats. The following applies: for Active at mg/kg: i.p. Here is the method:
Another test designed to determine the potential antipsychotic activity of the compounds of the invention is the conditioned avoidance (shelf-jump response) test.
This test is carried out as follows: Male CD rats (Charles River) maintained at approximately 400-450 gm body weight are used. Previously trained rats are placed in plexiglass experimental chambers divided into two sections; a main chamber (10 1/2" x 6 3/4" x 11 7/8" high) and an elevated chamber or shelf (5 7/8" x 6 7/8" x 5 3/4"). A moveable wall, controlled by a motor, determines whether the rat has access to the shelf at any time during the experiment. The experimental chamber also contains a house light and sonalert. A steel grid floor in the main chamber is wired for presentation of electric shock. Each trial consists of a fifteen-second warning tone (conditioned stimulus), continuing for an additional fifteen seconds accompanied by electric shock, (unconditioned stimulus). A response (jumping onto the exposed shelf of the upper chamber) occurring during the initial fifteen-second warning tone is considered an avoidance response, while a response occurring during shock delivery is considered an escape response. Trials are presented on a fixed interval schedule of one minute. The session consists of thirty-six trials. Animals are run twice weekly with control sessions always preceding a drug run, and with at least one day intervening. Compounds are administered i.p. or p.o. at appropriate pre-treatment times to a minimum of five rats at each dose level over a range of doses.
The following experimental parameters are recorded by computer: (1) the number of avoidance responses, (2) the number of escape responses, and (3) the number of trials in which no response occurred.
(§1) Response counts are summed over all subjects at a given dose. […] This number is expressed as a percentage of the total trials. Control performance is arbitrarily assigned a value of 100% for avoidance and the dose calculated to produce a 50% block in avoidance responding (AB₅₀) is obtained from a dose-effect regression line fitted by the method of least squares. Potential antipsychotic compounds suppress avoidance responding and increase escape responding.

Assay [2] relates to avoidance responding. As to the kind of experiment: conditioned avoidance (discrete trial) test. It is filed as in vivo, Male CD rats. The following applies: for ED50: Rattus norvegicus. Here is the method: The antipsychotic activity of the compounds of the invention is assessed via the conditioned avoidance (discrete trial) test. This test has excellent clinical correlation for antipsychotic activity.
The test is carried out as follows: Male CD rats (Charles River) maintained at approximately 400-450 gm body weight are used. Rats trained previously are placed in plexiglass experimental chambers equipped with a response lever, house light, and sonalert. A steel grid floor is wired for presentation of electric shock. Each trial consists of a fifteen-second warning tone (conditioned stimulus), continuing for an additional fifteen seconds accompanied by electric shock, (unconditioned stimulus). The rat can terminate a trial at any point by depression of the response lever. As response during the initial fifteen-second warning tone ends the trial before shock delivery and is considered avoidance response, while a response occurring during shock delivery is an escape response. Trials are presented on a variable interval schedule of two minutes. The session consists of sixty trials. Animals are run two to three times weekly with control sessions always preceding a drug run, and with at least one day intervening, compounds are administered i.p. or p.o. at appropriate pre-treatment times to a minimum of five to six rats at each dose level over a range of doses.
as §1

In assay [3] the target is T1, limbic D-2 dopamine receptor (Rattus norvegicus, UniProt P61169).
T1 construct: Limbic brain tissue (nucleus accumbens, septal area, olfactory tubercle) is dissected; from tissue; host or cells: rat limbic brain tissue (nucleus accumbens, septal area, olfactory tubercle) homogenate
T1 sequence (P61169 whole entry): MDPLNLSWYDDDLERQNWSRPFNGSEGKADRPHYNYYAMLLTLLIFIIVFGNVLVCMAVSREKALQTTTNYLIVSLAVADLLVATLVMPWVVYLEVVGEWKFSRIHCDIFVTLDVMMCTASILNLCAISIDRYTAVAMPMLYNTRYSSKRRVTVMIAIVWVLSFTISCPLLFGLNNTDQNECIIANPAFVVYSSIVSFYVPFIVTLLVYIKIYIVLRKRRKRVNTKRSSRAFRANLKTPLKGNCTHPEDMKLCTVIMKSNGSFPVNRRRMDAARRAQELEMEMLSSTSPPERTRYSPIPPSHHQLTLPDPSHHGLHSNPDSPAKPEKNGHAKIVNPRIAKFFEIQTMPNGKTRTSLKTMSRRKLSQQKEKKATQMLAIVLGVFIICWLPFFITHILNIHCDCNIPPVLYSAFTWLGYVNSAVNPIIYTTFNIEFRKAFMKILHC
As to the kind of experiment: biochemical. The class given is binding, rats. The following applies: for Ki: Table 1, 0.3 nM 3H-spiroperidol, rat limbic brain tissue, read-out: Limbic D-2 Binding (KinM); for inhibition at 1 µM: read-out: Limbic D-2 Binding, % inhibition at 1 µM.

Where [4] appears, read: ip, standard compounds, dose producing 50% block in avoidance responding, read-out: AB50 (the source's name).

Counter-ions that a name gives are not always drawn.

For orientation: inhibition means the percentage by which the read-out fell short of the control.

With “2-[4-[4-(2-Pyrimidinyl)-1-piperazinyl]butyl]octahydro-4,7ethano-1H-cyclobut[f]isoindole-1,3-(2H)-dione, dihydrochloride, sesquihydrate [Example 6]”, the Active at mg/kg was 40 (i.p.) mg/kg in assay [1] and 40 (p.o.) mg/kg in assay [2] (p.o., active dose, no AB50).

Regarding `O=C1CC2(CCCC2)CC(=O)N1CCCCN1CCN(c2ncccn2)CC1` [Buspirone, 8-[4-[4-(2-pyrimidinyl)-1-piperazinyl]butyl]-8-azaspiro[4.5]decane-7,9-dione, reference compound], the ED50 in assay [1] (Rattus norvegicus, ip, standard compounds, read-out: AB50 (the source's name)) is 9.94 mg/kg.

Consider `O=C1C2C3C=CC(C4CC34)C2C(=O)N1CCCCN1CCN(c2ncccn2)CC1` (centres unmarked) [Example 2, 4,4a,5,5a,6,6a-Hexahydro-2-[4-[4-(2-pyrimidinyl)-1-piperazinyl]butyl]-4,6-ethenocycloprop[f]isoindole-1,3-(2H,3aH)-dione,dihydrochloride, hydrate], for which, in assay [1], the Active at mg/kg is listed as 40 (i.p.) mg/kg.

With `O=C1C2C3C=CC(C4C=CC43)C2C(=O)N1CCCCN1CCN(c2cncc(Cl)n2)CC1` (centres unmarked) [Example 4, 3a,4,4a,6a,7,7a-Hexahydro-2-[4-[4-(6-chloro-2-pyrazinyl)-1-piperazinyl]butyl]-4,7-etheno-1H-cyclobut[f]isoindole-1,3(2H)-dione, dihydrochloride, sesquihydrate], the Active at mg/kg in assay [1] was 40 (i.p.) mg/kg.

In the case of `O=C1C2C3CCC(C4CCC43)C2C(=O)N1CCCCN1CCN(c2cncc(Cl)n2)CC1` (centres unmarked) [Example 5, 2-[4-[4-(6-Chloro-2-pyrazinyl-1-piperazinyl]butyl]octahydroo-4,7-ethano-1H-cyclobut[f]isoindole-1,3-(2H)-dione, hydrochloride, hemihydrate], the Active at mg/kg in assay [1] is listed as 40 (i.p.) mg/kg.

In the case of `O=C1C2C3C=CC(C4CC34)C2C(=O)N1CCCCN1CCN(c2ccc(Cl)nn2)CC1` (centres unmarked) [Example 9, 2-[4-[4-(6-Chloro-3-pyridazinyl)-1-piperazinyl]butyl]hexahydro-4,6-ethenocycloprop[f]isoindole-1,3-(2H,3H)-dione, hydrochloride], the Active at mg/kg in assay [1] is listed as 40 (i.p.) mg/kg.

On to `O=C1C2C3C=CC(C4CCC34)C2C(=O)N1CCCCN1CCN(c2nccnc2Cl)CC1` (centres unmarked) [Example 10, 2-[4-[4-(3-Chloro-2-pyrazinyl)-1-piperazinyl]butyl] octahydro-4,7-etheno-1H-cyclobut[f]isoindole-1,3(2H)--dione, dihydrochloride, hydrate], for which the Active at mg/kg in assay [1] is 40 (i.p.) mg/kg.

Turning to `O=C1C2C3C=CC(C4C=CC43)C2C(=O)N1CCCCN1CCN(c2ccc(Cl)nn2)CC1` (centres unmarked) [Example 11, 3a,4,4a,6a,7,7a-Hexahydro-2-[4-[4-(6-chloro-3-pyridazinyl)-1-piperazinyl]butyl]4,7-etheno-1H--cyclobut[f]isoindole-1,3(2H)-dione, hydrochloride, hydrate], the Active at mg/kg in assay [1] is 40 (i.p.) mg/kg.

As to `O=C1C2C3C=CC(C4C=CC43)C2C(=O)N1CCCCN1CCN(c2nccnc2Cl)CC1` (centres unmarked) [Example 12, 3a,4,4a,6a,7,7a-Hexahydro-2-[4-[4-(3-chloro-2-pyrazinyl-1-piperazinyl]butyl]4,7-etheno-1H-cyclobut[f]isoindole-1,3(2H)-dione, hydrochloride, dihydrate], the Active at mg/kg in assay [1] is on record as 40 (i.p.) mg/kg.

`O=C1C2C3CCCCC(CC3)C2C(=O)N1CCCCN1CCN(c2cncc(Cl)n2)CC1` (centres unmarked) [Example 14, hydrochloride, hemihydrate]: the Active at mg/kg in assay [1] is 40 (i.p.) mg/kg. For the same molecule, the Ki in assay [3] amounted to 440 nM.

Regarding `O=C1C2C3C=CC(C4CCC34)C2C(=O)N1CCCCN1CCN(c2cncc(Cl)n2)CC1` (centres unmarked) [Example 15, 2-[4-[4-(6-Chloro-2-pyrazinyl)-1-piperazinyl]butyl]-octahydro-4,7-etheno-1H-cyclobut[f]isoindol-1,3-(2H)-dione, hydrochloride], in assay [1], the Active at mg/kg is 40 (i.p.) mg/kg. In assay [3], the Ki came out at 413 nM.

As to `O=C1C2C3C=CC(C3)C2C(=O)N1CCCCN1CCN(c2ccc(Cl)nn2)CC1` (centres unmarked) [Example 17, 2-[4-[4-(6-Chloro-3-pyridazinyl-1-piperazinyl]butyl]-3a,4,7,7a-tetrahydro-4,7-methano-1H-isoindole-1,3-(2H)-dione, hydrochloride, dihydrate], the Active at mg/kg in assay [1] is recorded as 40 (i.p.) mg/kg. Moreover, the inhibition at 1 µM in assay [3] amounted to 19%.

`O=C1C2C3C=CC(C3)C2C(=O)N1CCCCN1CCN(c2nccnc2Cl)CC1` (centres unmarked) [Example 18, 2-[4-[4-(3-Chloro-2-pyrazinyl)-1-piperazinyl]butyl]-3a,4,7,7a-tetrahydro-4,7-methano-1H-isoindole-1,3-(2H)-dione, hydrochloride, 2.5 hydrate]: the Active at mg/kg in assay [1] was 40 (i.p.) mg/kg. Moreover, the ED50 in assay [2] (po, footnote 1 = AB50 value, read-out: Active at mg/kg (AB50 value)) came to 40 mg/kg. Besides, in assay [3], the inhibition at 1 µM is 48%.

Take `Cl.O.O=C1C2C3C=CC(C4CC34)C2C(=O)N1CCCCN1CCN(c2nccnc2Cl)CC1` (centres unmarked) [Example 19, 2-[4-[4-(3-Chloro-2-pyrazinyl)-1-piperazinyl]butyl]hexahydro-4,6-ethenocycloprop[f]isoindole-1,3(2H,3aH)-dione, hydrochloride, hydrate]: the Active at mg/kg in assay [1] is given as 40 (i.p.) mg/kg. The Ki in assay [3] stood at 54 nM.

In the case of `Cl.O.O=C1C2C3C=CC(CCCC3)C2C(=O)N1CCCCN1CCN(c2nccnc2Cl)CC1` (centres unmarked) [Example 20, 2-[4-[4-(3-Chloro-2-pyrazinyl)-1-piperazinyl]butyl]octahydro-4,9-etheno-1H-cycloocta[c]pyrrole-1,3(2H)-dione, hydrochloride, hydrate], the Active at mg/kg in assay [1] is given as 40 (i.p.) mg/kg. The inhibition at 1 µM in assay [3] is 78%.

`Cl.O=C1C2C3CCC(C4CC43)C2C(=O)N1CCCCN1CCN(c2cncc(Cl)n2)CC1` (centres unmarked) [Example 25, 2-[4-[4-(6-Chloro-2-pyrazinyl)-1-piperazinyl]butyl]hexahydro-4,6-ethanocycloprop[f]isoindole-1,3(2H,3aH)-dione, hydrochloride]: in assay [1], the Active at mg/kg was 40 (i.p.) mg/kg. Also, the inhibition at 1 µM in assay [3] stood at 49%.

Turning to `Cl.O=C1C2C3CCC(C4CC43)C2C(=O)N1CCCCN1CCN(c2nccnc2Cl)CC1` (centres unmarked) [Example 26, 2-[4-[4-(3-Chloro-2-pyrazinyl)-1-piperazinyl]butyl]hexahydro-4,6-ethanocycloprop[f]isoindole-1,3(2H,3aH)-dione, hydrochloride], the Active at mg/kg in assay [1] was 40 (i.p.) mg/kg. Also, in assay [3], the inhibition at 1 µM is 75%.

`Cl.Cl.O.O=C1C2C3C=CC(C4C=CC43)C2C(=O)N1CCCCN1CCN(c2ccc(C(F)(F)F)cn2)CC1` (centres unmarked) [Example 28, 3a,4,4a,6a,7,7a-Hexahydro-2-[4-[4-(5-trifluoromethyl-2-pyridinyl)-1-piperazinyl]-butyl]-4,7-etheno-1H-cyclobut[f]isoindole-1,3(2H)-dione, dihydrochloride, hydrate]: in assay [1], the Active at mg/kg is recorded as 40 (i.p.) mg/kg.

As for `Cl.Cl.O=C1C2C3CCCC(CC3)C2C(=O)N1CCCCN1CCN(c2ncccn2)CC1` (centres unmarked) [Example 29, 4,5,6,7,8,8a-Hexahydro-2-[4-[4-(2-pyrimidinyl)-1-piperazinyl]butyl]-4,8-ethanocyclohepta[c]pyrrole-1,3(2H,3aH)-dione, dihydrochloride], the Active at mg/kg in assay [1] was 40 (i.p.) mg/kg.

As for `O=C(CCCN1CCC(O)(c2ccc(Cl)cc2)CC1)c1ccc(F)cc1` [Haloperidol, reference compound], the ED50 in assay [2] (setting [4]) amounted to 0.18 mg/kg.

Turning to `O=C(CCCN1CCC2(CC1)C(=O)NCN2c1ccccc1)c1ccc(F)cc1` [Spiperone, reference compound], in assay [2] (setting [4]), the ED50 is 0.13 mg/kg.

Regarding `CSc1ccc2c(c1)N(CCC1CCCCN1C)c1ccccc1S2` (centres unmarked) [Thioridazine, reference compound], in assay [2] (setting [4]), the ED50 turned out to be 8.61 mg/kg.
